Assay results from patent US20250280843A1, “METHOD FOR INHIBITING POTATOES FROM GREENING AND USE THEREOF” (priority 2024, published 2025).
Like-named read-outs stand apart in the source and are kept apart here.

Legend:
potatoes = format: in vivo, potato; conditions: under illumination; specific experimental data omitted
Description: Ethylene, as a plant hormone that promotes maturity and aging, can be produced by some plants themselves and exists in a certain amount in the storage environment and even in the air. Ethylene binds with a related receptor inside a cell to activate a series of physiological and biochemical reactions related to maturity, thereby accelerating aging and death. 1-MCP can also bind well with an ethylene receptor, but such binding will not cause a biochemical reaction of maturity. Therefore, before the production of endogenous ethylene in a plant or the action of exogenous ethylene, if 1-MCP is applied, it will bind with the ethylene receptor first, thereby preventing the binding of ethylene with the receptor thereof, which greatly prolongs the ripening and aging process of fruits and vegetables and extends the length for preservation. There are many reagents that bind with the ethylene receptor to control the production of ethylene, e.g. aminooxyacetic acid (AOA), salicylic acid (SA), 2,5-norbornadiene (2,5-NBD), silver thiosulfate (STS), and aminooxyvinylglycine (AVG). These reagents are all ethylene inhibitors.

potato tubers [1] = assay: Determination of greening index a* of potato tuber skin after fumigation; format: in vivo, potato ("V7"); conditions: for greening index a*: fumigation 10 mg 1-MCP + NaOH 16 h; for Value of greening index a*: with NaOH
Description: The method for inhibiting potatoes from greening was: treating potato tubers with 1-MCP, and specifically, fumigating potato tubers with 1-MCP and NaOH.
(§1) “V7” potatoes were used as experimental materials. They were collected from Dongyu Vegetable Market in Ningbo City, Zhejiang Province. They were freshly picked and transported to the laboratory at room temperature. They were cleaned, and tubers of uniform sizes and free of diseases and insect pests and free of mechanical damages were selected as experimental samples. The samples were divided into two groups, immersed in distilled water for 10 min and then naturally air-dried after the immersion treatment was ended.
(§2) One group served as a control group (CK) without any subsequent treatment, and contained 50 potatoes. For another group, a carton was provided, in which 50 potatoes were placed. The carton was placed in a controlled atmosphere storage box with a volume of 1,000 L at a temperature controlled at 25° C. and the humidity maintained at 60%. The gas composition in the controlled atmosphere storage box was maintained the same as that of the atmosphere. A space was reserved in the controlled atmosphere storage box. 10 mg of 1-MCP dry powder was weighed into a glass weighing bottle. The weighing bottle containing 1-mcp was placed in the controlled atmosphere storage box, and added with 2 ml of a 1M NaOH solution to release 1-mcp gas from the weighing bottle. The weight of the gas was 10 mg. The potatoes were placed in the gas environment, fumigated for 16 h, taken out and then air-dried for 1 h. The meaning of “fumigation” here was to put the potatoes in a gas environment of 10 mg 1-mcp in a 1,000 L controlled atmosphere storage box, which was equivalent to a concentration of 0.01 milligrams of the 1-mcp gas per liter of gas.
Subsequently, the potatoes of the control group (2 groups) and the treatment group (2 groups) were bagged (two groups). The two groups were stored in a constant temperature and humidity chamber at 25±1° C. and relative humidity of 60% for 12 d. One of the groups was an illumination group with an illumination intensity of 10,000 LUX, and the other one was a group with protection from light having an illumination intensity of 0 LUX (in the dark). The tuber skin of the potatoes was taken every 3 d and photographed. The skin was then frozen in liquid nitrogen, and stored at −80° C. for subsequent analysis.
Potato tubers treated for corresponding days were picked out. 6 potatoes were randomly selected from each group. the skin of potato tuber was peeled off, and immediately measured for the color difference with a colorimeter (Shenzhen ThreeNH Technology Co., Ltd., model: NR60CP+), and the a* value was determined and recorded with a […] to indicate the color change of the potato skin. a* was an important parameter for measuring color and lustre. The positive or negative value indicated reddish (positive indicated reddish) or greenish (negative indicated greenish), and the magnitude of the absolute value indicated the degree of reddish or greenish. The colorimeter was calibrated with a standard white plate before determination.
Three groups of experiments were set up. One group was as described in Example 1, in which potato tubers were fumigated with 1-MCP and NaOH, serving as the control group in this experiment. The difference between an experimental group 1 and the control group was that no NaOH solution was used, but an equal volume of water was used. The difference between an experimental group 2 and the control group was that no NaOH solution was used, but an equal volume of anhydrous ethanol was used.
This example employed the method provided in Example 1, and employed 1-MCP and NaOH to fumigate potato tubers, where the dosages of 1-MCP were 1, 5, 10, 15, and 20 mg, respectively. The greening index a* value was determined by the same method as in Example 1.

[2] = test system: chlorophyll synthesis-related genes; assay: Gene expression by real-time PCR: chlorophyll synthesis genes; design: species or system potato; conditions: during the greening period; vs control
Experimental: Chlorophyll synthesis-related genes included StHEMA, StGSA, StPBGD, StCPO, StPPO, StCHLD, StCHLI, StCHLH, STCHLHM, StCRD1, StPOR1, StPOR2, StCHLG, and StCHLP.
(§3) Total RNA was extracted from frozen potato skins and transformed into cDNA. The expression levels of the aforementioned genes were determined by a Bio-Rad CFX 96 Real-Time PCR System (BIO-RAD, Hercules, CA, USA) and a SYBR Green I Master Mix (Vazyme, Nanjing, Jiangsu, China). Thermocycling conditions included an initial denaturation step at 95° C. for 30 s, followed by 39 cycles of 95° C. for 15 s, then 55° C. for 30 s, and 72° C. for 20 s. Three biological replicates were used, and each replicate was measured for three times. StEF-1a was used as a reference gene for potatoes. Gene expression was calculated by using a 2-ΔCt method.

potato tubers [3] = assay: Determination of solanine content (LC-MS); format: in vivo, potato ("V7"); conditions: vs control
Experimental: as §1
One group served as a control group (CK) without any subsequent treatment, and contained 50 potatoes. For another group, a carton was provided, in which 50 potatoes were placed. The carton was placed in a controlled atmosphere storage box with a volume of 1,000 L at a temperature controlled at 25° C. and the humidity maintained at 60%. The gas composition in the controlled atmosphere storage box was maintained the same as that of the atmosphere. A space was reserved in the controlled atmosphere storage box. 10 mg of 1-MCP dry powder was weighed into a glass weighing bottle. The weighing bottle containing 1-mcp was placed in the controlled atmosphere storage box, and added with 2 ml of a 1M NaOH solution to release 1-mcp gas from the weighing bottle. The weight of the gas was 10 mg. The potatoes were placed in the gas environment, fumigated for 16 h, taken out and then air-dried for 1 h. The meaning of “fumigation” here was to put the potatoes in a gas environment of 10 mg 1-mcp in a 1,000 L controlled atmosphere storage box, which was equivalent to a concentration of 0.01 milligrams of the 1-mcp gas per liter of gas. […]
Solanine was mainly composed of solanine and chaconine, with solanidine as aglycone. Therefore, α-solanine and α-chaconine (Sigma-Aldrich, USA) were used as chemical standards for quantification of SGA content. • 1) Liquid chromatography conditions: AgilentEclipsePlusC18 chromatographic column (100 mm×2.1 mm, 1.8 μm); the mobile phase A was 1 mmol/L of an acidified ammonium formate solution, and the mobile phase B was acetonitrile. […]

potato tubers [4] = assay: Determination of ethylene release amount; format: in vivo, potato ("V7"); conditions: illumination group, entire storage period 12 d; vs control
Experimental: as §1
(§4) One group served as a control group (CK) without any subsequent treatment, and contained 50 potatoes. For another group, a carton was provided, in which 50 potatoes were placed. The carton was placed in a controlled atmosphere storage box with a volume of 1,000 L at a temperature controlled at 25° C. and the humidity maintained at 60%. The gas composition in the controlled atmosphere storage box was maintained the same as that of the atmosphere. A space was reserved in the controlled atmosphere storage box. 10 mg of 1-MCP dry powder was weighed into a glass weighing bottle. […]
4 potato tubers were randomly selected and placed in a sealed container (illumination group). They were placed at respective storage temperatures for 3 h, and then 5 mL of gas was extracted and determined for ethylene content using a Shimadzu type 2014C gas chromatograph (Shimadzu, Japan). […]

[5] = test system: solanine synthesis-related genes; assay: Gene expression by real-time PCR: solanine synthesis genes; design: species or system potato; conditions: during the greening period; vs control
Experimental: Genes related to inhibition of solanine synthesis included StHMGR, StPSS1, StSQE1, StCAS1, StSSR2, StSSR1, StPGA2, StPGA1, StDOX, StGAME6, StPGA3, StGAME12, StSGT1, StSGT2, and StSGT3.
as §3

StPOD42 = assay: Gene expression by real-time PCR: germination-promoting gene; design: species or system potato; conditions: during storage; vs control
Experimental: Germination-promoting genes included StPOD42 (XM_006363284.2).
as §3

potato tubers [6] = assay: Long-term preservation effect under natural illumination; format: in vivo, potato ("V7"); conditions: for color difference value: natural day/night, 25±1° C.
Experimental: as §2
In order to simulate natural illumination, the aforementioned control and treated potatoes were placed in an incubator (fully transparent), and placed under conditions of 25±1° C. and relative humidity of 60% in an outdoor environment. Based on the environment with natural alternation of day and night, the color difference was calculated through instruments. The change in color difference values was measured every 5 days during storage for 2, 3, and 6 months. […] In the 2nd month of storage, the color difference value of the control group was −14, while the test value of the treatment group was −2.2.

[7] = test system: chlorophyll degradation-related genes; assay: Gene expression by real-time PCR: chlorophyll degradation genes; design: species or system potato; conditions: during the greening period; vs control
Experimental: Chlorophyll degradation-related genes included StSGR, StNYC1, StTIC, and StPAO.
as §3

[8] = cited from earlier work
potato tubers [9] = assay: Determination of chlorophyll content; format: in vivo, potato ("V7"); conditions: illumination group, during storage 12 d; vs control
Experimental: as §1
as §4, with “atmosphere.” for “atmosphere. A space was reserved in the controlled atmosphere storage box. 10 mg of 1-MCP dry powder was weighed into a glass weighing bottle.”
0.2 g of a potato frozen sample (the sample of the illumination group) was taken, grounded into a homogenate with 1.5 mL of 95% (v/v) ethanol in an ice bath, and then centrifuged at a rotational speed of 10.000 r/min for 10 min. The precipitate was discarded, the supernatant was taken, and 95% ethanol was used as a blank group, to determine the absorbance values at 649 nm and 665 nm, respectively. […]

In the case of O=C(O)c1ccccc1O [salicylic acid], the “effect on greening of potatoes” value (potatoes) is reported as “accelerate the greening progress”.

For C1=CC2C=CC1C2 [2,5-norbornadiene], the “effect on greening of potatoes” value (potatoes) was “accelerate the greening progress”.

With 1-methylcyclopropene [1-MCP] the “greening index a*: fumigation with NaOH compared with equal volume of water or ethanol” value (potato tubers [1]; Example 3, 1-MCP released with NaOH solution vs water vs anhydrous ethanol) was “significantly improve the effect of 1-MCP in inhibiting greening”, the “greening index a*” value (potato tubers [1]; dark (0 LUX), 6th day of storage) was “basically no greening” and the “Value of greening index a*” value (potato tubers [1]; dosage of 1-MCP 1 mg, storage 12 d) was −3.2. The “Value of greening index a*” value (potato tubers [1]; dosage of 1-MCP 5 mg, storage 12 d) was −2.1, the “Value of greening index a*” value (potato tubers [1]; dosage of 1-MCP 10 mg, storage 12 d) was −1.2 and the “Value of greening index a*” value (potato tubers [1]; dosage of 1-MCP 15 mg, storage 12 d) was −1.8. The “Value of greening index a*” value (potato tubers [1]; dosage of 1-MCP 20 mg, storage 12 d) was −2.6, the “greening index a*” value (potato tubers [1]; illumination 10,000 LUX, 25±1° C., storage 12 d, vs control) was “still remained at a relatively high level” and the “expression amount of chlorophyll synthesis-related genes” value [2] was “significantly lower than those in the control group”. The solanine content (potato tubers [3]; during storage, dark or light) was “increased very slowly”, the α-chaconine content (potato tubers [3]; starting from the 3rd day) was “significantly different from those in the control group” and the α-solanine content (potato tubers [3]; starting from the 3rd day) was “significantly different from those in the control group”. For the same molecule, the ethylene release amount (potato tubers [4]) was “always lower than that of the control group”, the “expression amount of solanine synthesis-related genes” value [5] was “significantly lower than those in the control group” and the “expression of the germination-promoting gene StPOD42” value (StPOD42) was “did not affect the expression”. For the same molecule, the “appearance (green spots)” value (potato tubers [6]; 2nd month of storage) was “no obvious changes”, the color difference value (potato tubers [6]; 2nd month of storage) was −2.2 and the germination in appearance (potato tubers [6]; 3 months of storage) was “a small amount of germination”. For the same molecule, the occurrence of greening (potato tubers [6]; 3 months of storage) was “no occurrence of greening”, the color difference value (potato tubers [6]; 3 months of storage) was −3.4 and the germination (potato tubers [6]; 6 months of storage) was “a small amount of germination”. The occurrence of greening (potato tubers [6]; 6 months of storage) was “no occurrence of greening”, the solanine content (potato tubers [6]; 6 months of storage) was “maintained within a safe range” and the color difference value (potato tubers [6]; 6 months of storage) was −6.7. The “expression amount of chlorophyll degradation genes” value [7] was “significantly higher than those in the control group”, the “effect on greening of potatoes” value (potatoes) was “significantly inhibit potatoes from greening” and the solubility in solvent ([8]; 3-dichlorotoluene) was 2000 µg/mL. The water solubility ([8]; 20° C.) was 137 µg/mL, the solubility in solvent ([8]; acetone) was 2400 µg/mL and the solubility in solvent ([8]; ethyl acetate) was 12500 µg/mL. The solubility in solvent ([8]; heptane) was 2500 µg/mL, the solubility in solvent ([8]; methanol) was 11250 µg/mL and the solubility in solvent ([8]; xylene) was 2300 µg/mL. The chlorophyll content (potato tubers [9]) was “increased slowly compared with the control group”.

With silver thiosulfate the “effect on greening of potatoes” value (potatoes) was “will not inhibit the potatoes from greening”.

In the case of NOCC(=O)O [aminooxyacetic acid], the “effect on greening of potatoes” value (potatoes) is reported as “will not inhibit the potatoes from greening”.
